Tests used:
[1] = system: carp; conditions: in vivo
Text: (§1) The data in FIG. 8 leads to several conclusions. […] Importantly, members of both the ‘A’ and ‘SP’ AA groups are NOT considered to be physiologically significant. […] Thus, as a direct consequence, it is strongly inferred that only AAs belonging to the ‘B’ and ‘LN’ groups are physiologically significant with regard to the fishes' ability to detect forage via the recognition of solvated AAs.

[2] = system: carp; experiment: Stimulatory response (average feeding time/fish) to VAL/LYS solutions, FIG. 8; format: in vivo
Text: FIG. 8 is a graph showing stimulatory response as a function of composition for mixtures of L-Valine (V) and L-Lysine (K).
The relationship between stimulatory response (as determined through average feeding time/fish) and AA ratio for a variety of net equimolar mixtures comprised of VAL (V) and LYS (K), as well as reference solutions containing the respective individual AAs is shown in FIG. 8.
as §1

[3] = physiological pH; cited from earlier work

Compound: NC(=O)CC[C@H](N)C(=O)O [GLU, glutamine]
- physiological distress on exposure [1]: signs of physiological distress

Compound: NCCCC[C@H](N)C(=O)O [LYS, L-Lysine]
- stimulatory response (average feeding time/fish) ([2]; net equimolar VAL/LYS mixtures and 0.5% single AA reference solutions): significantly enhanced stimulatory response

Compound: N[C@@H](Cc1c[nH]cn1)C(=O)O [L-Histidine]
- fraction protonated [3]: approximately 10%

Compound: CC(C)[C@H](N)C(=O)O [VAL, L-Valine]
- stimulatory response relative to that observed for a similar strength LYS solution ([2]; similar concentration (0.5%) solution): approximately 50%

Compound: N[C@@H](CO)C(=O)O [SER, serine]
- physiological distress on exposure [1]: signs of physiological distress

Source: patent US20120177779A1, “FISH FEEDING STIMULANT AND PRODUCT” (priority 2008, published 2012)
